Results reported in PubChem BioAssay (NCI).
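Protocol summary: plate cells (96-well), add compound at 5 concentrations, incubate 48 h, interpolate endpoints linearly. TGI is the concentration that stops growth completely.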

Assays:
Test in all cases: DTP human tumour cell line panel, 48 h
[1] = tested on: NCI-H522 lung
[2] = tested on: OVCAR-3 ovarian
[3] = tested on: UACC-62 melanoma
[4] = tested on: HOP-18 NSCLC
[5] = tested on: U251 CNS
[6] = tested on: HCT-15 colon
[7] = tested on: KM20L2 colon
[8] = tested on: OVCAR-8 ovarian
[9] = tested on: COLO 205 colon
[10] = tested on: SK-MEL-2 melanoma
[11] = tested on: M14 melanoma
[12] = tested on: UO-31 renal
[13] = tested on: SK-MEL-28 melanoma
[14] = tested on: A498 renal
[15] = tested on: SW-620 colon
[16] = tested on: DMS 114 small cell lung
[17] = tested on: 786-0 renal
[18] = tested on: CCRF-CEM leukemia
[19] = tested on: RPMI-8226 leukemia
[20] = tested on: HCC-2998 colon
[21] = tested on: SK-MEL-5 melanoma
[22] = tested on: SNB-19 CNS
[23] = tested on: HCT-116 colon
[24] = tested on: M19-MEL melanoma
[25] = tested on: OVCAR-4 ovarian
[26] = tested on: RXF 393 renal
[27] = tested on: K-562 leukemia
[28] = tested on: SF-539 CNS
[29] = tested on: MALME-3M melanoma
[30] = tested on: HOP-62 NSCLC
[31] = tested on: SK-OV-3 ovarian
[32] = tested on: IGROV1 ovarian
[33] = tested on: HL-60(TB) leukemia
[34] = tested on: EKVX NSCLC
[35] = tested on: KM12 colon
[36] = tested on: A549 NSCLC
[37] = tested on: HT29 colon
[38] = tested on: SR leukemia
[39] = tested on: MOLT-4 leukemia
[40] = tested on: LXFL 529 NSCLC
[41] = tested on: HOP-92 NSCLC
[42] = tested on: SN12C renal
[43] = tested on: OVCAR-5 ovarian
[44] = tested on: TK-10 renal
[45] = tested on: NCI-H23 lung
[46] = tested on: CAKI-1 renal
[47] = tested on: DLD-1 colon
[48] = tested on: DMS 273 small cell lung
[49] = tested on: SF-268 CNS
[50] = tested on: SNB-75 CNS
[51] = tested on: LOX IMVI melanoma
[52] = tested on: SF-295 CNS
[53] = tested on: NCI-H226 lung
[54] = tested on: SNB-78 CNS
[55] = tested on: ACHN renal
[56] = tested on: NCI-H460 lung
[57] = tested on: UACC-257 melanoma

## Nc1ccc2c(c1)Oc1c(F)c(F)cc3c(=O)c(C(=O)O)cn-2c13
[1]
  TGI: > 100 µM
[2]
  TGI: 96.6 µM
[3]
  TGI: > 100 µM
[4]
  TGI: > 100 µM
[5]
  TGI: > 100 µM
[6]
  TGI: > 100 µM
[7]
  TGI: > 100 µM
[8]
  TGI: > 100 µM
[9]
  TGI: > 100 µM
[10]
  TGI: > 100 µM
[11]
  TGI: > 100 µM
[12]
  TGI: 93.7 µM
[13]
  TGI: > 100 µM
[14]
  TGI: 49.7 µM
[15]
  TGI: > 100 µM
[16]
  TGI: > 100 µM
[17]
  TGI: > 100 µM
[18]
  TGI: > 100 µM
[19]
  TGI: > 100 µM
[20]
  TGI: > 100 µM
[21]
  TGI: 47.9 µM
[22]
  TGI: > 100 µM
[23]
  TGI: > 100 µM
[24]
  TGI: > 100 µM
[25]
  TGI: > 100 µM
[26]
  TGI: > 100 µM
[27]
  TGI: > 100 µM
[28]
  TGI: > 100 µM
[29]
  TGI: > 100 µM
[30]
  TGI: > 100 µM
[31]
  TGI: > 100 µM
[32]
  TGI: > 100 µM
[33]
  TGI: > 100 µM
[34]
  TGI: > 100 µM
[35]
  TGI: > 100 µM
[36]
  TGI: > 100 µM
[37]
  TGI: > 100 µM
[38]
  TGI: > 100 µM
[39]
  TGI: > 100 µM
[40]
  TGI: > 100 µM
[41]
  TGI: 96.9 µM
[42]
  TGI: > 100 µM
[43]
  TGI: > 100 µM
[44]
  TGI: > 100 µM
[45]
  TGI: > 100 µM
[46]
  TGI: > 100 µM
[47]
  TGI: > 100 µM

## COc1cc2c(cc1OC)c1c(OC)c(OC)cc3c1c1c2sc(=S)n1CC3
[1]
  TGI: 34.6 µM
[2]
  TGI: > 100 µM
[3]
  TGI: 59.1 µM
[48]
  TGI: > 100 µM
[49]
  TGI: > 100 µM
[4]
  TGI: > 100 µM
[50]
  TGI: > 100 µM
[5]
  TGI: > 100 µM
[51]
  TGI: > 100 µM
[6]
  TGI: > 100 µM
[7]
  TGI: > 100 µM
[8]
  TGI: > 100 µM
[9]
  TGI: > 100 µM
[10]
  TGI: > 100 µM
[11]
  TGI: 35.1 µM
[12]
  TGI: > 100 µM
[13]
  TGI: > 100 µM
[52]
  TGI: > 100 µM
[14]
  TGI: > 100 µM
[15]
  TGI: > 100 µM
[16]
  TGI: 98.1 µM
[17]
  TGI: 35.1 µM
[18]
  TGI: > 100 µM
[19]
  TGI: > 100 µM
[20]
  TGI: > 100 µM
[21]
  TGI: > 100 µM
[53]
  TGI: > 100 µM
[22]
  TGI: > 100 µM
[23]
  TGI: > 100 µM
[24]
  TGI: > 100 µM
[25]
  TGI: > 100 µM
[26]
  TGI: > 100 µM
[27]
  TGI: > 100 µM
[28]
  TGI: > 100 µM
[29]
  TGI: > 100 µM
[31]
  TGI: > 100 µM
[32]
  TGI: > 100 µM
[33]
  TGI: 81.8 µM
[34]
  TGI: > 100 µM
[35]
  TGI: > 100 µM
[36]
  TGI: > 100 µM
[37]
  TGI: > 100 µM
[39]
  TGI: > 100 µM
[40]
  TGI: > 100 µM
[54]
  TGI: > 100 µM
[55]
  TGI: > 100 µM
[41]
  TGI: > 100 µM
[42]
  TGI: > 100 µM
[43]
  TGI: > 100 µM
[44]
  TGI: > 100 µM
[45]
  TGI: > 100 µM
[46]
  TGI: > 100 µM
[56]
  TGI: > 100 µM
[57]
  TGI: > 100 µM
[47]
  TGI: > 100 µM
